Experimental data published in patent US6495699B2, “Metalloproteinase inhibitors, pharmaceutical compositions containing them, and their use” (Agouron Pharmaceuticals Inc., priority 1996, dated 2002).

What was measured:
[1] = target: T1, fibroblast collagenase-1 catalytic domain (HFC) (Homo sapiens, UniProt P03956); experiment: Fluorometric MCA-peptide hydrolysis assay, fibroblast collagenase-1 (HFC); assay type: biochemical; conditions: apparent Ki; 10 μM MCA peptide substrate, 37° C., pH 7.5; read-out: HFC (Ki,app)
T1 construct: The catalytic domain of human collagenase-1 was expressed as a fusion protein with ubiquitin in E. coli; ubiquitin (cleaved yes); made in house; host or cells: E. coli
T1 sequence (P03956 100-269 limits assumed): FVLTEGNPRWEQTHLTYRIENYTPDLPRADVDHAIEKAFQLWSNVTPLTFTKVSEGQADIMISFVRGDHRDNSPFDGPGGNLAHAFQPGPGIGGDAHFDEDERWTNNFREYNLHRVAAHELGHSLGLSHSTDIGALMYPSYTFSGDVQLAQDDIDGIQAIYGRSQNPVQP
How it was run: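 Human collagenase-1 catalytic domain, expressed in E. coli as ubiquitin fusion, was assayed with 10 μM MCA-Pro-Leu-Gly-Leu-DPA-Ala-Arg-NH2 at 37 °C in Tricine pH 7.5, 2% DMSO, over 60 min (ex 328/em 393 nm). Ki,app came from steady-state rates fitted to competitive or Morrison tight-binding equations.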

Human matrilysin (Matr) = target: T2, Human matrilysin (Matr) (Homo sapiens, UniProt P09237); experiment: Fluorometric MCA-peptide hydrolysis assay, matrilysin (Matr); assay type: biochemical; conditions: apparent Ki; 10 μM MCA peptide substrate, 37° C., pH 7.5; read-out: Matr (Ki,app)
T2 construct: the catalytic domain was liberated by treatment with 2 mM APMA at 37° C. for 2 hours; ubiquitin (cleaved yes); made in house; host or cells: E. coli
T2 sequence (P09237 95-267): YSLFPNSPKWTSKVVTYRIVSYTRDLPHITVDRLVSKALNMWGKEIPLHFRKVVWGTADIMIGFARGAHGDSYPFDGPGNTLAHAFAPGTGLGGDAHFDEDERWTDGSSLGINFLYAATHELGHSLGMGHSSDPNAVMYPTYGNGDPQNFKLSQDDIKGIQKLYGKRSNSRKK
How it was run: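 Catalytic domain of E. coli-expressed human matrilysin assayed at 37° C, pH 7.5 Tricine buffer, 2% DMSO, with 10 μM MCA-Pro-Leu-Gly-Leu-DPA-Ala-Arg-NH2; fluorescence ex 328/em 393 nm over 60 min. Ki,app from steady-state rates fitted to competitive inhibition or Morrison tight-binding equation.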

CNC(=O)[C@@H](NC(=O)[C@@H](CC(=O)O)n1ccc(-c2ccc(-c3ccc(C#N)cc3)cc2)c1)C(C)(C)C [Example 5(c), 3(R)-[3-(4′-Cyanobiphenyl-4-yl)-1H-pyrrol-1-yl]-N-[2,2-dimethyl-1(S)-(methylcarbamoyl)propyl]succinamic Acid]
Ki [1]: 1500 nM | Ki (Human matrilysin (Matr)): 305 nM
